22 compounds from patent US20200129492A1, “TREATMENT OF CANCER WITH DIHYDROPYRIDINES” (MENRI GROUP LTD., priority 2017, published 2020) can be followed below.

Common to all, as to type: cell-based
In assay [1] the test system is NSCLC A549 lung cancer cells. Briefly: XTT assay, cell proliferation after 72 hours incubation, IC50. As for the experimental part:
Example 10 (see also FIG. 10) is a study to determine the effect of the combination of calcium blockers on the proliferation of cancer cells. NSCLC A549 lung cancer cells were incubated with various concentrations of a combination of calcium blockers ranging from 1 μM to 50 μM. […] An XTT assay was then performed. The cell proliferation was then calculated. Results are representative of at least three independent experiments. IC50 was calculated from the % inhibition data.
(In general: Tetrazolium assays rely on reduction of a dye to a coloured formazan, in cell work by metabolically active cells.)

For assay [2], the system named is A549 lung cancer cells. Briefly: XTT assay, cell proliferation 48 hours after addition. The settings on record: increasing concentrations. How it is done:
An XTT assay was performed 48 hours after the addition of nitrendipine at increasing concentrations. The cell proliferation was then calculated. Results are representative of at least three independent experiments. The results are illustrated in FIG. 1B. […] Without limitation by theory, it is theorized that nitrendipine lethally flooded the cells with calcium at the noted concentrations.
An XTT assay was performed 48 hours after the addition of nicardipine at increasing concentrations. The cell proliferation was then calculated. Results are representative of at least three independent experiments. The results are illustrated in FIG. 2B. […] Without limitation by theory, it is theorized that the nicardipine-initiated block of the entry of extracellular free calcium inhibits the cell's ability to undergo or successfully finish cytokinesis, and this may lead to cell death.
An XTT assay was performed 48 hours after the addition of nisoldipine at increasing concentrations. The cell proliferation was then calculated. Results are representative of at least three independent experiments. The results are illustrated in FIG. 4B. […] Without limitation by theory, it is theorized that the nisoldipine-initiated block of the entry of extracellular free calcium inhibits the cell's ability to undergo or successfully finish cytokinesis and this may lead to cell death.
The cell proliferation was then calculated. Results are representative of at least three independent experiments. The results are illustrated in FIG. 7B. […] Without limitation by theory, it is theorized that the loperamide-initiated block of the entry of extracellular free calcium inhibits the cell's ability to undergo or successfully finish cytokinesis, and this may lead to cell death.

The test system of assay [3] is NSCLC A549 lung cancer cells. Briefly: XTT assay, cell proliferation after 24 hours incubation. How it is done: Example 6 was a study to determine the effect of treatment with nitrendipine and the dihydropyridine of Formula IV above on the proliferation of cancer cells. NSCLC A549 lung cancer cells were incubated with various concentrations of nitrendipine and the dihydropyridine of Formula IV ranging from 1 μM to 100 μM. 5000 cells were plated in RPMI medium per well and incubated with either the individual drugs for 24 hours. An XTT assay was then performed. The cell proliferation was then calculated. FIG. 6 is a graphical representation of the results.
Example 8 was a study to determine the effect of the combination of calcium blockers on the proliferation of cancer cells. NSCLC A549 lung cancer cells were incubated with various concentrations of a combination of calcium blockers ranging from 1 μM to 50 μM. In this specific example, the combination of loperamide and the dihydropyridine, nitrendipine, was used. […] An XTT assay was then performed. The cell proliferation was then calculated. Results are representative of at least three independent experiments. FIG. 8 is a graphical representation of the results.
Example 9 is a study to determine the effect of the combination of calcium blockers on the proliferation of cancer cells. NSCLC A549 lung cancer cells were incubated with various concentrations of a combination of calcium blockers ranging from 1 μM to 50 μM. In this specific example, the combination of loperamide and the dihydropyridine, nicardipine, was used. […] An XTT assay was then performed. The cell proliferation was then calculated. Results are representative of at least three independent experiments. FIG. 9 is a graphical representation of the results.

Assay [4] concerns A549 lung cancer cells. Briefly: Intracellular free calcium, Fura-2-AM fluorescence measurement.
Protocol: The intracellular free calcium measurement was done using Fura-2-AM fluorescence measurement. […] Ionomycin was used as the positive control for stimulation of calcium entry. Calcium was removed from the medium at the end of each experiment via addition of EGTA or replacement of the medium with calcium free medium. The calculation of the absolute calcium concentration was performed using a standard calcium curve. An average of 15 cells is shown.
The intracellular free calcium measurement was done using Fura-2-AM fluorescence measurement. […] The calculation of the absolute calcium concentration was performed using a standard calcium curve. An average of 15 cells is shown.
The intracellular free calcium measurement was done using Fura-2-AM fluorescence measurement. […] Ionomycin was used as the positive control for stimulation of calcium entry.
The mark [5] stands for this setting: Homo sapiens, A549, compound alone plus DMSO, 72 hours, read-out: Plus DMSO (Control), IC-50.
Setting [6] is: read-out: Plus Loperamide, IC-50, in combination with loperamide (5 uM per FIG. 10), 72 hours.
[7] abbreviates: compound alone plus DMSO, 72 hours.

The structures appear in SMILES notation. Like-named read-outs stand apart in the source and are kept apart here.

As to `COC(=O)C1=C(C)NC(C)=C(C(=O)OC(C)(C)CN(C)CCC(c2ccccc2)c2ccccc2)C1c1cccc([N+](=O)[O-])c1` (racemic) [Lercanidipine], the IC50 in assay [1] (setting [5]) stood at 7.7 µM; in assay [1] (setting [6]) it was 3.95 µM.

In the case of `CCOC(=O)C1=C(C)NC(C)=C(C(=O)OC)C1c1cccc([N+](=O)[O-])c1` (racemic) [Nitrendipine, (RS)-3-Ethyl 5-methyl 2,6-dimethyl-4-(m-nitrophenyl)-1,4-dihydropyridine-3,5-dicarboxylate], the “percentage of cell growth” value in the assay on A549 lung cancer cells [2] is “decreases as the concentration of nitrendipine is increased”. The Avg. % proliferation in assay [3] (Example 6, 1 μM) amounted to 86.24%; in assay [3] (Example 6, 5 μM) it was 87.19%; in assay [3] (Example 6, 10 μM), 75.97%; in assay [3] (Example 6, 50 μM) it was 52.21%; in assay [3] (Example 6, 100 μM) it was 24.42%; in assay [3] (Example 8, 1 μM), 102.33%. The Avg. % proliferation in assay [3] (Example 8, 5 μM) came to 93.35%; in assay [3] (Example 8, 10 μM) it was 102.58%; in assay [3] (Example 8, 50 μM) it was 71.43%. Also, the “effect on intracellular free calcium” value in the assay with A549 lung cancer cells [4] (1 μM and 5 μM treatments) is reported as “functions as an agonist for the entry of extracellular calcium”; with A549 lung cancer cells [4] (consecutive treatments with nitrendipine and nicardipine, 20 μM each), “floods the cells with calcium”. Besides, the “concentration of intracellular calcium versus positive control (ionomycin)” value in the assay on A549 lung cancer cells [4] (5 μM treatment) is “greater than that of the positive control”.

Take `CCOC(=O)C1=C(COCCN)NC(C)=C(C(=O)OC)C1c1ccccc1Cl` (centres unmarked) [Amlodipine]: in assay [1] (setting [5]), the IC50 was determined as 22 µM.

On to `CC1=C(C(=O)OC(C)C)C(c2cccc([N+](=O)[O-])c2)C(C(=O)OC2CN(C(c3ccccc3)c3ccccc3)C2)=C(N)N1` (centres unmarked) [Azelnidipine], for which the figures for the IC50 in assay [1] (setting [5]) and in assay [1] (setting [6]) were 8.5 µM and 4.8 µM, respectively.

In the case of `COC(=O)C1=C(C)NC(C)=C(C(=O)OC2CCCN(Cc3ccccc3)C2)C1c1cccc([N+](=O)[O-])c1` (centres unmarked) [Benidipine], the IC50 in assay [1] (setting [5]) turned out to be 18 µM.

For `CCCC(=O)OCOC(=O)C1=C(C)NC(C)=C(C(=O)OC)C1c1cccc(Cl)c1Cl` (centres unmarked) [Clevidipine], the IC50 in assay [1] (setting [5]) was determined as 23 µM.

On to `COCCOC(=O)C1=C(C)NC(C)=C(C(=O)OC/C=C/c2ccccc2)C1c1cccc([N+](=O)[O-])c1` (centres unmarked) [Clinidipine], for which the IC50 in assay [1] (read-out: Plus DMSO (Control), IC-50) came out at 41 µM.

As for `COc1ccc([C@@H]2Sc3ccccc3N(CCN(C)C)C(=O)[C@@H]2OC(C)=O)cc1` [Diltiazem], the “Plus DMSO (Control), IC-50” value in assay [1] (setting [7]) is on record as “No Activity”.

Turning to `CC1=C(C(=O)OCCN(Cc2ccccc2)c2ccccc2)C(c2cccc([N+](=O)[O-])c2)C(P2(=O)OCC(C)(C)CO2)=C(C)N1` (centres unmarked) [Efonidipine], the IC50 in assay [1] (setting [5]) came out at 10.2 µM.

As to `CCOC(=O)C1=C(C)NC(C)=C(C(=O)OC)C1c1cccc(Cl)c1Cl` (centres unmarked) [Felodipine], the IC50 in assay [1] (setting [5]) was found to be 26 µM.

Regarding `CCOC(=O)C1=C(C)NC(C)=C(C(=O)OC)C1c1ccccc1` (centres unmarked) [Formula IV, 5-O-ethyl 3-O-methyl 2,6-dimethyl-4-phenyl-1,4-dihydropyridine-3,5-dicarboxylate], the Avg. % proliferation in assay [3] (Example 6, 5 μM) is 96.4%; in assay [3] (Example 6, 10 μM), 104.2%; in assay [3] (Example 6, 50 μM), 79.06%; in assay [3] (Example 6, 100 μM), 67.8%. Moreover, the “effect on intracellular free calcium” value in the assay on A549 lung cancer cells [4] (5 μM and 50 μM treatments) was “blocks the influx of extracellular calcium”.

Regarding `COC(=O)C1=C(C)NC(C)=C(C(=O)OC(C)C)C1c1cccc2nonc12` (centres unmarked) [Isradipine], in assay [1] (setting [5]), the IC50 worked out at 26 µM.

For the compound `CCOC(=O)C1=C(C)NC(C)=C(C(=O)OCC)C1c1ccccc1/C=C/C(=O)OC(C)(C)C` [Lacidipine], the IC50 in assay [1] (setting [5]) amounted to 16 µM.

For the compound `CN(C)C(=O)C(CCN1CCC(O)(c2ccc(Cl)cc2)CC1)(c1ccccc1)c1ccccc1` [Loperamide, 4-[4-(4-Chlorophenyl)-4-hydroxypiperidin-1-yl]-N,N-dimethyl-2,2-diphenylbutanamide], the “percentage of cell growth” value in the assay with A549 lung cancer cells [2] was “decreases as the concentration of loperamide is increased”. Besides, the Avg. % proliferation in assay [3] (Example 8, 1 μM) is given as 98.07%; in assay [3] (Example 8, 5 μM) it was 99.77%; in assay [3] (Example 8, 10 μM), 96.09%; in assay [3] (Example 8, 50 μM), 34.04%; in assay [3] (Example 9, 1 μM) it was 92.73%; in assay [3] (Example 9, 5 μM) it was 86.97%. For the same compound, the Avg. % proliferation in assay [3] (Example 9, 10 μM) is 90.33%; in assay [3] (Example 9, 50 μM) it was 32.03%. Also, the “effect on intracellular free calcium” value in the assay with A549 lung cancer cells [4] (5 μM and 50 μM treatments) is on record as “blocks the influx of extracellular calcium”.

As for `COC(=O)C1=C(C)NC(C)=C(C(=O)OCCN2CCN(C(c3ccccc3)c3ccccc3)CC2)C1c1cccc([N+](=O)[O-])c1` (centres unmarked) [Manidipine], in assay [1] (setting [5]), the IC50 came to 8.2 µM.

Consider `COC(=O)C1=C(C)NC(C)=C(C(=O)OCCN(C)Cc2ccccc2)C1c1cccc([N+](=O)[O-])c1` (centres unmarked) [Nicardipine, 2-[benzyl(methyl)amino]ethylmethyl-2,6-dimethyl-4-(3-nitrophenyl)-1,4-dihydropyridine-3,5-dicarboxylate], for which the results for the IC50 in assay [1] (setting [5]) and in assay [1] (setting [6]) were 13.7 µM and 6.7 µM, respectively. Further, the Avg. % proliferation is 99.90% in assay [3] (Example 9, 1 μM); 100.23% in assay [3] (Example 9, 5 μM); 86.20% in assay [3] (Example 9, 10 μM); 32.97% in assay [3] (Example 9, 50 μM).

In the case of `COC(=O)C1=C(C)NC(C)=C(C(=O)OC)C1c1ccccc1[N+](=O)[O-]` [Nifedipine], the “Plus DMSO (Control), IC-50” value in assay [1] (setting [7]) is on record as “No Activity”.

In the case of `COC(=O)C1=C(C)NC(C)=C(C(=O)OCCCN2CCC(c3ccccc3)(c3ccccc3)CC2)[C@H]1c1cccc([N+](=O)[O-])c1` [Niguldipine], the IC50 in assay [1] (Homo sapiens, A549, 72 h, read-out: Plus DMSO (Control), IC-50) was determined as 5.37 µM; in assay [1] (read-out: Plus Loperamide, IC-50), 3.12 µM.

As to `COC(=O)C1=C(C#N)NC(C)=C(C(=O)OC(C)C)C1c1cccc([N+](=O)[O-])c1` (centres unmarked) [Nilvadipine], the IC50 in assay [1] (setting [5]) was found to be 17.6 µM.

Regarding `COCCOC(=O)C1=C(C)NC(C)=C(C(=O)OC(C)C)C1c1cccc([N+](=O)[O-])c1` (centres unmarked) [Nimodipine], the “Plus DMSO (Control), IC-50” value in assay [1] (setting [7]) was “No Activity”.

As for `COc1ccc(CCN(C)CCCC(C#N)(c2ccc(OC)c(OC)c2)C(C)C)cc1OC` (centres unmarked) [Verapamil], the “Plus DMSO (Control), IC-50” value in assay [1] is reported as “No Activity”.

Regarding `COC(=O)C1=C(C)NC(C)=C(C(=O)OCC(C)C)C1c1ccccc1[N+](=O)[O-]` (centres unmarked) [nisoldipine, isobutyl methyl 2,6-dimethyl4-(2-nitrophenyl)-1,4-dihydropyridine-3,5-dicarboxylate], the “percentage of cell growth” value in the assay on A549 lung cancer cells [2] was “decreases as the concentration of nisoldipine is increased”. For the same compound, the “effect on intracellular free calcium” value in the assay on A549 lung cancer cells [4] (5 μM and 10 μM treatments) is listed as “blocks the influx of extracellular calcium”.
